Source: US20190327974A1, “SYNERGISTS FOR IMPROVED PESTICIDES” (priority 2017, published 2019)
Where two headings read alike, the source gives them in different places.

Columns and labels:
293T = assay: Cell toxicity panel, viability (luminescence); assay type: cell-based; details: Homo sapiens, HEK-293T; Readout: Luminescence; read-out: IC50 Viability Cells, Cell line: 293T
Procedure: (§1) To further establish the safety and cell toxicity of compounds according to this invention, their IC50 in killing a broad panel of human cell lines (including both cancerous and non-cancerous) cell lines was determined, and their cell toxicity was tested.

HB-2 cells = assay: Cellular toxicity, Cell Titer Glo; assay type: cell-based, human; details: for toxicity to HB-2 cells (in words): 48 h, up to 100 μM; for IC50: Homo sapiens, 48 h incubation, Cell Titer Glo, read-out: Viability IC50 HB-2
Procedure: (§2) A seven-point, two-fold dose response series, with a 100 uM as the upper limit and a DMSO-only control point was generated using an Echo 550 liquid handler (Labcyte Inc.) in 384-well plates. Subsequently, the human breast cell lines MDA-MB-231 (tumorigenic) and HB2 (non-tumorigenic) were seeded (1000 cells/well) using a multi-drop Combi (Thermo Fisher Scientific) on top of the compounds. Plates were then incubated at 37° C. and 5% CO2 for 48 hours upon which cell viability was assessed by adding CellTiter-Glo® (Promega) to the reaction. The luminescence signal was measured on a Pherastar FS multi-mode plate reader (BMG Labtech).

MDA-MB-231 cells = assay: Cellular toxicity, Cell Titer Glo; assay type: cell-based, human; details: for IC50: Homo sapiens, MDA-MB-231, 48 h incubation, Cell Titer Glo, read-out: Viability IC50 MDA-MB-231
Procedure: as §2

[1] = target: T1, Electrophorus electricus AChE (Electrophorus electricus, UniProt O42275); assay: AChE selectivity (Ellman, acetylthiocholine); assay type: biochemical; details: for Ki: tested to solubility limit, read-out: Ki Ee AChE
T1 construct: purchased Sigma Type V-S
Procedure: Initially, the KM for AChE with the substrate acetylthiocholine was determined by monitoring thiocholine production with 5,5′-dithiobis(2-nitrobenzoic acid) (DTNB) at 412 nm. Acetylthiocholine was prepared in assay buffer (100 mM NaH2PO4 pH 7.4) to 10 mM and serially diluted 1-in-2 to achieve concentrations from 10 mM to 0.08 mM while AChE was prepared in 20 mM NaH2PO4 pH 7.0 supplemented with 4 mg/ml BSA to 0.4 nM. […] The reaction was initiated by the addition of 20 μl AChE (40 pM final concentration). Product formation was monitored for six minutes at room temperature and the initial rates of thioester hydrolysis were determined by linear regression using GraphPad Prism. The Michalis constant was determined as before (FIG. 10).
AChE inhibition was determined by assaying the initial rate of acetylthiocholine hydrolysis in the presence of either neat DMSO or the boronic acid compounds in DMSO. […] Reactions were prepared by pipetting 178 μl assay buffer supplemented with acetylthiocholine (to a final concentration of 100 μM) and DTBN (to a final concentration of 300 μM) into wells of a 96-well plate. […] The reaction was initiated by the addition of 20 μl enzyme (final concentration 40 pM). Product formation was monitored for six minutes at room temperature and the initial rates of thioester hydrolysis were determined by linear regression. IC50 and Ki values were determined as described previously (FIG. 9).

[2] = system: Lucilia cuprina larvae, laboratory drug-susceptible strain LS; assay: Lucilia cuprina larval bioassay (pupation rate), laboratory strain; assay type: in vivo; details: for synergism with diazinon (in words): susceptible strain
Procedure: Inhibitor efficacy was determined by treating larvae with diazinon over a range of concentrations, in the presence or absence of the compounds at constant concentrations, and comparing pupation rates.
Two strains of L. cuprina were used: 1) a laboratory reference drug-susceptible strain, LS, derived from collections in the Australian Capital Territory over 40 years ago, with no history of exposure to insecticides; and 2) a field-collected strain, Tara, resistant to diazinon and diflubenzuron (Levot, G. W. & Sales, N. New high level resistance to diflubenzuron detected in the Australian sheep blowfly, Lucilia cuprina (Wiedemann) (Diptera: Calliphoridae). Gen. Appl. Entomol. 31, 43-46 (2002)). The LcαE7 gene was sequenced in each of the strains. Briefly, genomic DNA was prepared from 20 adult female flies from each strain using the DNeasy Blood and Tissue kit (Qiagen). PCR was performed with primers specific to the LcαE7 gene, and the product was cloned into a pGEM-T EASY vector (Promega). Eight clones of the susceptible strain and 10 clones of the resistant strain were sequenced using M13 forward and reverse primers.
Each experiment utilized 50 larvae at each diazinon/malathion concentration. Experiments were replicated three times for diazinon, and twice for malathion. The insecticidal effects were defined by measuring the pupation rate. […] Compounds were also without diazinon or malathion at 1 mg per assay.

HT29 = assay: Cell toxicity panel, viability (luminescence); assay type: cell-based, human; details: Readout: Luminescence, read-out: IC50 Viability Cells, Cell line: HT29
Procedure: as §1

Hela = assay: Cell toxicity panel, viability (luminescence); assay type: cell-based, human; details: Readout: Luminescence, read-out: IC50 Viability Cells, Cell line: Hela
Procedure: as §1

PC3 = assay: Cell toxicity panel, viability (luminescence); assay type: cell-based, human; details: Readout: Luminescence, read-out: IC50 Viability Cells, Cell line: PC3
Procedure: as §1

Colo205 = assay: Cell toxicity panel, viability (luminescence); assay type: cell-based, human; details: Readout: Luminescence, read-out: IC50 Viability Cells, Cell line: Colo205
Procedure: as §1

HCT116 = assay: Cell toxicity panel, viability (luminescence); assay type: cell-based, human; details: Readout: Luminescence, read-out: IC50 Viability Cells, Cell line: HCT116
Procedure: as §1

H23 = assay: Cell toxicity panel, viability (luminescence); assay type: cell-based, human; details: Readout: Luminescence, read-out: IC50 Viability Cells, Cell line: H23
Procedure: as §1

[3] = system: Myzus persicae (Green peach aphid); assay: CPE combined with boronic acid derivatives on small broad bean leaves; assay type: in vivo; details: for toxicity of the boronic acid derivative alone (in words): ANOVAs followed by Newman-Keuls tests, threshold 5%; for insecticidal efficacy of CPE on addition of the compound (in words): CPE at 2.8 g a.i./ha and 5.6 g a.i./ha
Procedure: […] The treatment was performed with an agricultural nozzle (300 L per hectare) […]. A non-treated control condition were also evaluated in parallel. Statistical analysis of the data was then performed. When the leaves were totally dry, 3 leaves were sampled and infested with 3 wingless adults of M. persicae per leaf fragment.
• T+1 (DAT 1)—One day later the number of adults remaining on the leaves was counted. • T+3 (DAT 3)—3 days after treatment the aphid population was estimated; • T+7 (DAT 7)—7 days after treatment the development of aphid population was estimated.
3 bean leaves fragments per microbox*4 microbox per condition (1 condition is 1 formulation at 1 dose)*9 adult aphids per microbox*4 insecticides (3 chlorpyrifos derivates+clorpyrifos alone)*4 rates+2 controls (1 reference insecticide formulation at one dose and non-treated)*3 assessments timings (DAT+1, DAT+3 and DAT+7).

T1 sequence (O42275 24-633): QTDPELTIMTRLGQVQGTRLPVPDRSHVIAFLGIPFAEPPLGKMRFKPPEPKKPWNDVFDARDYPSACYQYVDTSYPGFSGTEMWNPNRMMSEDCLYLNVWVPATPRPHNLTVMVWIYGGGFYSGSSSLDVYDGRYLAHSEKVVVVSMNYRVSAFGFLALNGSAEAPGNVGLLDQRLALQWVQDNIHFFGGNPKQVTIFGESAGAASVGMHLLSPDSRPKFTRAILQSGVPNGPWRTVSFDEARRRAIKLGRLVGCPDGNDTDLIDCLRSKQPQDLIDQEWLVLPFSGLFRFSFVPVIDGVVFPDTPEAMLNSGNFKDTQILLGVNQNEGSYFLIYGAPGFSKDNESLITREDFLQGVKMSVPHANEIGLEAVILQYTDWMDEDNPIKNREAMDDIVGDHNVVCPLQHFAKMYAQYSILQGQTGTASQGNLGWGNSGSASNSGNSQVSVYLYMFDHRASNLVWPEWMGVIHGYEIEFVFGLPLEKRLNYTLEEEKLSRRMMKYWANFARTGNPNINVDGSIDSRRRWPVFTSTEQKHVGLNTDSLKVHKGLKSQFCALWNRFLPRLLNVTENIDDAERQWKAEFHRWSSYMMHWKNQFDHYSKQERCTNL

SMILES | IC50 (293T) | toxicity to HB-2 cells (in words) (HB-2 cells) | IC50 (HB-2 cells) | IC50 (MDA-MB-231 cells) | Ki [1] | synergism with diazinon (in words) [2] | IC50 (HT29; Homo sapiens, HT-29) | IC50 (Hela; Homo sapiens, HeLa) | IC50 (PC3; Homo sapiens, PC-3) | IC50 (Colo205; Homo sapiens, COLO 205) | IC50 (HCT116; Homo sapiens, HCT-116) | IC50 (H23; Homo sapiens, NCI-H23) | toxicity of the boronic acid derivative alone (in words) [3] | insecticidal efficacy of CPE on addition of the compound (in words) [3] | further results
Cc1ccc(B(O)O)cc1OCc1ccccc1 [Compound 2] | 42.9 µM | low toxicity | 20.5 µM | > 100 µM | > 300 µM | No synergism was observed | 34.1 µM | 4 µM | 49.1 µM | 91.5 µM | 62.8 µM | > 99.8 µM |  |  | 
OB(O)c1cc(Br)cc(N2CCCC2)c1 [Compound 3] | > 99.8 µM |  | > 100 µM | > 100 µM | 270 µM | synergism was observed | > 99.8 µM | 8.1 µM | > 99.8 µM | > 99.8 µM | > 99.8 µM | > 99.8 µM |  |  | inhibition of Electrophorus electricus acetylcholinesterase ([1]; tested to solubility limits (FIG. 9)): > 50%
OB(O)c1cc(Br)cc(Oc2ccccc2)c1 [Compound 3.10, 3-Bromo-5-phenoxyfenylboronic acid] |  | do not exhibit any cellular toxicity |  |  |  | synergism was observed |  |  |  |  |  |  | No significant toxicity | increased | toxicity to MDA-MB-231 cells (in words) (MDA-MB-231 cells; 48 h, up to 100 μM): do not exhibit any cellular toxicity; reduction of malathion EC50 compared to a malathion only control ([2]; laboratory strain): 16 fold
OB(O)c1ccc(OCc2ccccc2F)c(Cl)c1 [Compound 5, 3-Chloro-4(2′-fluorobenzyloxy) phenylboronic acid] | 90.3 µM | low toxicity | 77.8 µM | > 100 µM | > 100 µM | No synergism was observed | 62.4 µM | 4.8 µM | 83.7 µM | 79.4 µM | 88.5 µM | 92.7 µM | No significant toxicity | increased | 
CC(C)Oc1cc(Br)cc(B(O)O)c1 [Compound 3.7, 3-Bromo-5-isopropoxyphenylboronic acid] |  |  |  |  |  |  |  |  |  |  |  |  | No significant toxicity | increased | 
OB(O)c1cc(Br)cc(N2CCOCC2)c1 [Compound 3.1] |  |  |  |  |  |  |  |  |  |  |  |  |  |  | reduction of diazinon EC50 compared to a diazinon only control ([2]; susceptible laboratory strain): 5.7 fold; IC50 (HT29): > 99.8 µM; IC50 (Hela): > 99.8 µM; IC50 (PC3): > 99.8 µM; IC50 (Colo205): > 99.8 µM; IC50 (HCT116): > 99.8 µM; IC50 (H23): > 99.8 µM
